Data on 26 molecules can be found in patent US20220363665A1, “QUINOLINE COMPOUNDS FOR THE TREATMENT OF AUTOIMMUNE DISEASE” (Hoffmann-La Roche Inc., priority 2019, published 2022).

The structures appear in SMILES notation.

A word on the IC50: it is the point on the concentration scale where inhibition reaches its midpoint.

The experiment deals with T1, human TLR8 (Homo sapiens, UniProt Q9NR97).
T1 construct: host or cells: HEK293 (HEK-Blue hTLR8)
T1 sequence (Q9NR97 27-1041): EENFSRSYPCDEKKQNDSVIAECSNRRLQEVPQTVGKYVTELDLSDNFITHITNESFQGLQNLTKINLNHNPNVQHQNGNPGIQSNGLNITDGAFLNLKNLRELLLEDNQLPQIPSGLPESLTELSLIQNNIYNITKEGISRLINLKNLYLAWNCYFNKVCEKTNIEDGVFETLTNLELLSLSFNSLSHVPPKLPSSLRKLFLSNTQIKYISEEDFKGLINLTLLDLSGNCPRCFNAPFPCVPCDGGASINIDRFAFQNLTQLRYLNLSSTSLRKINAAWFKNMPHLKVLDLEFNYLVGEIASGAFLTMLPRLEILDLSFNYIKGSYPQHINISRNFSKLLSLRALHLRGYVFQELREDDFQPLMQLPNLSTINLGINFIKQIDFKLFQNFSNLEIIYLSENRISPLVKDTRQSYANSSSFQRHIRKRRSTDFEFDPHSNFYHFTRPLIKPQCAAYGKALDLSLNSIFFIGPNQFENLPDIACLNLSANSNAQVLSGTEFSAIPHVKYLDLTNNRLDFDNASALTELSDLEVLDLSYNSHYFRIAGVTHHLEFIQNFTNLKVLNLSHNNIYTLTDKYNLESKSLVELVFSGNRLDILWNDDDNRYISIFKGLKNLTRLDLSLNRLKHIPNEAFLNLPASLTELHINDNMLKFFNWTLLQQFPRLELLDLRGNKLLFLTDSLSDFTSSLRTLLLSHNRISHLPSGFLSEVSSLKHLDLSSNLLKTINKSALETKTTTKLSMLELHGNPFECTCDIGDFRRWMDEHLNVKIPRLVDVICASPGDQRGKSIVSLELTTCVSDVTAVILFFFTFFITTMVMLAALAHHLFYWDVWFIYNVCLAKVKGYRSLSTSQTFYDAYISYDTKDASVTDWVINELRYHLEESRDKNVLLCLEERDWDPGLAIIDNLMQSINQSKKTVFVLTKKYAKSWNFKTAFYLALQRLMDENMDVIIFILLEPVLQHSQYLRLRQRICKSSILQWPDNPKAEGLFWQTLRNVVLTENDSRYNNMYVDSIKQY
Nature of the experiment: HEK293-Blue-hTLR-8 cells assay (SEAP reporter, R848 stimulation). It counts as cell-based. To be noted: HEK293-Blue-hTLR8 cells, R848, 20 hrs. The method, then: The following tests were carried out in order to determine the activity of the compounds of formula (I) in HEK293-Blue-hTLR-7/8/9 cells assay.
HEK293-Blue-hTLR-8 Cells Assay:
A stable HEK293-Blue-hTLR-8 cell line was purchased from InvivoGen (Cat. #: hkb-htlr8, San Diego, Calif., USA). These cells were originally designed for studying the stimulation of human TLR8 by monitoring the activation of NF-κB. A SEAP (secreted embryonic alkaline phosphatase) reporter gene was placed under the control of the IFN-β minimal promoter fused to five NF-κB and AP-1-binding sites. The SEAP was induced by activating NF-κB and AP-1 via stimulating HEK-Blue hTLR8 cells with TLR8 ligands. Therefore the reporter expression was declined by TLR8 antagonist under the stimulation of a ligand, such as R848, for incubation of 20 hrs. The cell culture supernatant SEAP reporter activity was determined using QUANTI-Blue™ kit (Cat #. rep-qbl, Invivogen, San Diego, Calif., USA) at a wavelength of 640 nm, a detection medium that turns purple or blue in the presence of alkaline phosphatase.
HEK293-Blue-hTLR8 cells were incubated at a density of 250,000˜450,000 cells/mL in a volume of 170 μL in a 96-well plate in Dulbecco's Modified Eagle's medium (DMEM) containing 4.5 g/L glucose, 50 U/mL penicillin, […], […], 2 mM L-glutamine, 10% (v/v) heat-inactivated fetal bovine serum with addition of 20 μL test compound in a serial dilution in the presence of final DMSO at 1% and 10 μL of 60 μM R848 in above DMEM, perform incubation under 37° C. in a CO2 incubator for 20 hrs. Then 20 μL of the supernatant from each well was incubated with 180 μL Quanti-blue substrate solution at 37° C. for 2 hrs and the absorbance was read at 620˜655 nm using a spectrophotometer. The signalling pathway that TLR8 activation leads to downstream NF-KB activation has been widely accepted, and therefore similar reporter assay was modified for evaluating TLR8 antagonist.
The molecule `C[C@@H]1CN(c2ccc(C(F)(F)F)c3ncccc23)C[C@H](C(=O)NCC2COCCN2C)O1` (stereo partly drawn) [Example 11, (2R,6R)-6-methyl-N-[(4-methylmorpholin-3-yl)methyl]-4-[8-(trifluoromethyl)-5-quinolyl]morpholine-2-carboxamide] registered a half-maximal inhibitory concentration (IC50) of 62 nM.

Turning to `C[C@@H]1CN(c2ccc(C(F)(F)F)c3ncccc23)C[C@H](C(=O)NC2CCN(C)CC2)O1` [Example 5, (2R,6R)-6-methyl-N-(1-methyl-4-piperidyl)-4-[8-(trifluoromethyl)-5-quinolyl]morpholine-2-carboxamide], the IC50 is under 3 nM.

Regarding `C[C@@H]1CN(c2ccc(C(F)(F)F)c3ncccc23)C[C@H](C(=O)NCC2CNCC2(F)F)O1` (stereo partly drawn) [Example 29, (2R,6R)-N-[(4,4-difluoropyrrolidin-3-yl)methyl]-6-methyl-4-[8-(trifluoromethyl)-5-quinolyl]morpholine-2-carboxamide], the IC50 was found to be 14 nM.

As for `CC(NC(=O)[C@H]1CN(c2ccc(C(F)(F)F)c3ncccc23)C[C@@H](C)O1)C1CN(C)CCO1` (single isomer, unassigned) [Example 35B], the IC50 is under 3 nM.

Regarding `C[C@@H]1CN(c2ccc(C(F)(F)F)c3ncccc23)C[C@H](C(=O)NC2CCCNCC2)O1` (stereo partly drawn) [Example 8, (2R,6R)-N-(azepan-4-yl)-6-methyl-4-[8-(trifluoromethyl)-5-quinolyl]morpholine-2-carboxamide], the IC50 is under 3 nM.

Molecule `C[C@@H]1CN(c2ccc(Cl)c3ncccc23)C[C@H](C(=O)N[C@H]2CNC[C@H]2F)O1` [Example 22, (2R,6R)-4-(8-chloro-5-quinolyl)-N-[(3S,4R)-4-fluoropyrrolidin-3-yl]-6-methyl-morpholine-2-carboxamide] registered an IC50 of 19 nM.

Take `C[C@@H]1CN(c2ccc(C(F)(F)F)c3ncccc23)C[C@H](C(=O)NC2C3CNCC2COC3)O1` (single isomer, unassigned) [Example 46A]: the 50% inhibitory concentration (IC50) turned out to be 16 nM.

For `C[C@@H]1CN(c2ccc(C(F)(F)F)c3ncccc23)C[C@H](C(=O)NC2C[C@H]3C[C@@H]2CN3)O1` (some centres unmarked) [Example 44], the IC50 amounted to 43 nM.

`C[C@@H]1CN(c2ccc(Br)c3ncccc23)C[C@H](C(=O)NC2CNCC2F)O1` (stereo partly drawn) [Example 41, cis-(2R,6R)-4-(8-bromo-5-quinolyl)-N-[4-fluoropyrrolidin-3-yl]-6-methyl-morpholine-2-carboxamide] registered an IC50 of under 3 nM.

Turning to `C[C@@H]1CN(c2ccc(Cl)c3ncccc23)C[C@H](C(=O)NC2CCCNCC2)O1` (stereo partly drawn) [Example 25, (2R,6R)-N-(azepan-4-yl)-4-(8-chloro-5-quinolyl)-6-methyl-morpholine-2-carboxamide], the IC50 is under 3 nM.

As for `C[C@@H]1CN(c2ccc(C(F)(F)F)c3ncccc23)C[C@H](C(=O)NC2CC3CNCC(C3)C2)O1` (stereo partly drawn) [Example 37, (2R,6R)-N-(3-azabicyclo[3.3.1]nonan-7-yl)-6-methyl-4-[8-(trifluoromethyl)-5-quinolyl]morpholine-2-carboxamide], inhibition was half-maximal at 6 nM (IC50).

`C[C@@H]1CN(c2ccc(C(F)(F)F)c3ncccc23)C[C@H](C(=O)NC[C@@H]2CC(F)(F)CN2)O1` [Example 30] displayed a concentration for half-maximal inhibition (IC50) of 130 nM.

Turning to `C[C@@H]1CN(c2ccc(C(F)(F)F)c3ncccc23)C[C@H](C(=O)N[C@@H]2CNC[C@@H]2F)O1` (single isomer, unassigned) [Example 2A], the IC50 is under 3 nM.

`C[C@@H]1CN(c2ccc(C(F)(F)F)c3ncccc23)C[C@H](C(=O)NC2CNCC(F)(F)C2)O1` (stereo partly drawn) [Example 28, (2R,6R)-N-(5,5-difluoro-3-piperidyl)-6-methyl-4-[8-(trifluoromethyl)-5-quinolyl]morpholine-2-carboxamide] showed an IC50 of 86 nM.

In the case of `Cc1ccc(N2C[C@@H](C)O[C@@H](C(=O)N[C@@H]3CNC[C@@H]3F)C2)c2cccnc12` [Example 21, cis-(2R,6R)-N-14-fluoropyrrolidin-3-yl1-6-methyl-4-(8-methyl-5-quinolyl)morpholine-2carboxamide], the half-maximal inhibitory concentration (IC50) came out at 9 nM.

`C[C@@H]1CN(c2ccc(C(F)(F)F)c3ncccc23)C[C@H](C(=O)NCCN2CCOCC2)O1` [Example 13, (2R,6R)-6-methyl-N-(2-morpholinoethyl)-4-[8-(trifluoromethyl)-5-quinolyl]morpholine-2-carboxamide]: the 50% inhibitory concentration (IC50) worked out at 52 nM.

Turning to `C[C@H]1C[C@@H](N)CN(c2ccc(C(F)(F)F)c3ncccc23)C1` [Example 1, (3R,5S)-5-methyl-1-[8-(trifluoromethyl)-5-quinolyl]piperidin-3-amine], the IC50 is under 3 nM.

In turn, `C[C@@H]1CN(c2ccc(C(F)(F)F)c3ncccc23)C[C@H](C(=O)NCC(C)(C)N)O1` [Example 6, (2R,6R)-N-(2-amino-2-methyl-propyl)-6-methyl-4-[8-(trifluoromethyl)-5-quinolyl]morpholine-2-carboxamide] displayed an IC50 of 26 nM.

Molecule `C[C@@H]1CN(c2ccc([N+](=O)[O-])c3ncccc23)C[C@H](C(=O)NC2CCN(C)CC2)O1` [Example 20, (2R,6R)-6-methyl-N-(1-methyl-4-piperidyl)-4-(8-nitro-5-quinolyl)morpholine-2-carboxamide] registered a concentration for half-maximal inhibition (IC50) of under 3 nM.

As to `C#Cc1ccc(N2C[C@@H](C)O[C@@H](C(=O)NC3CCN(C)CC3)C2)c2cccnc12` [Example 43, (2R,6R)-4-(8-ethynyl-5-quinolyl)-6-methyl-N-(1-methyl-4-piperidyl)morpholine-2-carboxamide], the concentration for half-maximal inhibition (IC50) is under 3 nM.

On to `C[C@@H]1CN(c2ccc(Cl)c3ncccc23)C[C@H](C(=O)NCC2CN(C)CCO2)O1` (stereo partly drawn) [Example 26, (2R,6R)-4-(8-chloro-5-quinolyl)-6-methyl-N-[(4-methylmorpholin-2-yl)methyl]morpholine-2-carboxamide], for which the 50% inhibitory concentration (IC50) was under 3 nM.

As to `C[C@@H]1CN(c2ccc(C(F)(F)F)c3ncccc23)C[C@H](C(=O)NC2CNCCOC2)O1` (stereo partly drawn) [Example 14, (2R,6R)-6-methyl-N-(1,4-oxazepan-6-yl)-4-[8-(trifluoromethyl)-5-quinolyl]morpholine-2-carboxamide], the half-maximal inhibitory concentration (IC50) stood at 7 nM.

On to `C[C@@H]1CN(c2ccc(C(F)(F)F)c3ncccc23)C[C@H](C(=O)NC2C3CCC2CNC3)O1` (stereo partly drawn) [Example 31, (2R,6R)-N-(3-azabicyclo[3.2.1]octan-8-yl)-6-methyl-4-[8-(trifluoromethyl)-5-quinolyl]morpholine-2-carboxamide], for which the IC50 was determined as 9 nM.

Molecule `C[C@@H]1CN(c2ccc(C(F)(F)F)c3ncccc23)C[C@H](C(=O)NC2CC3CCC(C2)N3)O1` (single isomer, unassigned) [Example 47A] gave a concentration for half-maximal inhibition (IC50) of under 3 nM.

`C[C@@H]1CN(c2ccc([N+](=O)[O-])c3ncccc23)C[C@H](C(=O)N[C@@H]2CNC[C@@H]2F)O1` [Example 19, cis-(2R,6R)-N-[41-fluoropyrrolidin-3-yl]-6-methyl-4-(8-nitro-5-quinolyl)morpholine-2-carboxamide] had an IC50 of under 3 nM.

Molecule `C[C@@H]1CN(c2ccc(I)c3ncccc23)C[C@H](C(=O)NCC2CN(C)CCO2)O1` (stereo partly drawn) [Example 39, (2R,6R)-4-(8-iodo-5-quinolyl)-6-methyl-N-[(4-methylmorpholin-2-yl)methyl]morpholine-2-carboxamide] came in with a concentration for half-maximal inhibition (IC50) of under 3 nM.
